Assays:
K562 cells = conditions: parental K562 cells; 10 nM dasatinib; Fig 6C
K562-NR cells [1] = experiment: cells; conditions: Homo sapiens, read-out: Growth Inhibition IC50 (95% CI)
K562-NR cells [2] = conditions: cross-resistance, relative to parental
[3] = system: chronic myeloid leukemia (CML); conditions: cited from earlier work
K562-DR cells = experiment: cells; conditions: Homo sapiens, read-out: Growth Inhibition IC50 (95% CI)

Row | IC50 (K562-NR cells [1]) | IC50 (K562-DR cells) | SMILES | cell growth at the level consistent with resistant culture conditions (K562 cells) | cell growth inhibition (in words) (K562-NR cells [2]) | response rate [3]
1 | 3.6 nM |  | Cc1nc(Nc2ncc(C(=O)Nc3c(C)cccc3Cl)s2)cc(N2CCN(CCO)CC2)n1 [dasatinib] | lack of growth | somewhat less potent | 
2 |  |  | Cc1ccc(NC(=O)c2ccc(CN3CCN(C)CC3)cc2)cc1Nc1nccc(-c2cccnc2)n1 [imatinib] |  | unable to inhibit growth at any of the concentrations tested | 80%
3 | 718 nM | 25 nM | Cc1cn(-c2cc(NC(=O)c3ccc(C)c(Nc4nccc(-c5cccnc5)n4)c3)cc(C(F)(F)F)c2)cn1 [nilotinib] |  |  | 
